Literature values, collected in patent US4559324A, “Polypeptide-diesters, their production and use” (Takeda Chemical Industries, Ltd., priority 1982, dated 1985).

System: Substance P
Details: S. Rosell and K. Folkers, TIPS, 211 (1982)

Substance: (D-Pro^2, D-Trp^7, D-Trp^9)-Substance P
- antagonist activity against Substance P: sufficiently active

Substance: (D-Pro^2, D-Phe^7, D-Trp^9)-Substance P
- antagonist activity against Substance P: sufficiently active
